From patent EP0238060B1, “Cephalosporin derivatives, processes for their preparation and antibacterial agents” (Banyu Pharmaceutical Co., Ltd., priority 1986, dated 1987)
In brackets after ≈: the same amount, converted by molar mass.

Key:
[1] = test system: Enterobacter cloacae GN 5797; assay: Induction of β-lactamase by β-lactam antibiotics; format: cell-based
Method: The assay method for induction of β-lactamase by β-latam antibiotics was as follows: The test organism, Enterobacter cloacae GN 5797, was grown overnight in Mueller Hinton broth (Dlfco Laboratories, Detroit, Mich.) at 37°C. The culture was diluted l0-fold into 20 ml of the flesh medium and incubated with shaking at 37°C. After 2 hours of incubation, antibiotics were added to final concentrations of 50 µg/ml, l0 µg/ml and l µg/ml, and the incubation was continued. At l hour intervals after the addition of antibiotic, 5 ml of sample was taken, and immediately added with 0.l ml of 50 mM sodium azide. The cells were harvested and washed with 50 mM phosphate buffer (pH 7.0). The cells were suspended in 5 ml of 50 mM phosphate buffer and disrupted with a sonicater in an ice-water bath. The broken cells were centrifuged at l6,500 G for 40 minutes at 4°C, and the resulting supernatant fluid was used as the crude enzyme. β-Lactamase activity was determined by a spectrophotometric method (Antmicrob. Agents Chemother. 17, 355-358, 1980) with cephaloridine as substrate. The concentration of protein was determined by the method of Lowry (J. Biol. Chem. 193, 265-275, 1951).

S.marcescens No. 16-2 = assay: In vitro antibacterial activity, agar plate dilution method (MIC); format: cell-based; settings: Serratia marcescens, NO.162, 16 h, read-out: Minimum Inhibitory Concentration (MIC: µg/ml)
E.coli CSH(RE45) = assay: as above; format: cell-based; settings: Escherichia coli, 16 h, read-out: Minimum Inhibitory Concentration (MIC: µg/ml)
S.aureus BB5703 = assay: as above; format: cell-based; settings: Staphylococcus aureus, BB5703, 16 h, read-out: Minimum Inhibitory Concentration (MIC: µg/ml)
P.vulgaris No. 33 = assay: as above; format: cell-based; settings: Proteus vulgaris, NO.33, 16 h, read-out: Minimum Inhibitory Concentration (MIC: µg/ml)
A.calcoaceticus No. 4 = assay: as above; format: cell-based; settings: Acinetobacter calcoaceticus, NO.4, 16 h, read-out: Minimum Inhibitory Concentration (MIC: µg/ml)
S.epidermidis IAM12012 = assay: as above; format: cell-based; settings: Staphylococcus epidermidis, IAM12012, 16 h, read-out: Minimum Inhibitory Concentration (MIC: µg/ml)
E.cloacae 963 = assay: as above; format: cell-based; settings: Enterobacter cloacae, 963, 16 h, read-out: Minimum Inhibitory Concentration (MIC: µg/ml)
E.coli CSH2 (RK1) = assay: as above; format: cell-based; settings: Escherichia coli, 16 h, read-out: Minimum Inhibitory Concentration (MIC: µg/ml)
Ps.aeruginosa AKR17 = assay: as above; format: cell-based; settings: Pseudomonas aeruginosa, AKR17, 16 h, read-out: Minimum Inhibitory Concentration (MIC: µg/ml)
E.cloacae Nek 39 = assay: as above; format: cell-based; settings: Enterobacter cloacae, NEK39, 16 h, read-out: Minimum Inhibitory Concentration (MIC: µg/ml)
K.pneumoniae PCI-602 = assay: as above; format: cell-based; settings: Klebsiella pneumoniae, PCI602, 16 h, read-out: Minimum Inhibitory Concentration (MIC: µg/ml)
M.luteus ATCC9341 = assay: as above; format: cell-based; settings: Micrococcus luteus, ATCC9341, 16 h, read-out: Minimum Inhibitory Concentration (MIC: µg/ml)
C.freundii GN346 = assay: as above; format: cell-based; settings: Citrobacter freundii, GN346, 16 h, read-out: Minimum Inhibitory Concentration (MIC: µg/ml)
P.vulgaris HX-19 = assay: as above; format: cell-based; settings: Proteus vulgaris, HX19, 16 h, read-out: Minimum Inhibitory Concentration (MIC: µg/ml)
C.freundii GN346/16 = assay: as above; format: cell-based; settings: Citrobacter freundii, GN346, 16 h, read-out: Minimum Inhibitory Concentration (MIC: µg/ml)
M.morganii GN5407 = assay: as above; format: cell-based; settings: Morganella morganii, GN5407, 16 h, read-out: Minimum Inhibitory Concentration (MIC: µg/ml)
Ps.aeruginosa AK 109 = assay: as above; format: cell-based; settings: Pseudomonas aeruginosa, AK109, 16 h, read-out: Minimum Inhibitory Concentration (MIC: µg/ml)
S.aureus JS1 = assay: as above; format: cell-based; settings: Staphylococcus aureus, JS1, 16 h, read-out: Minimum Inhibitory Concentration (MIC: µg/ml)
E.coli NIHJ JC2 = assay: as above; format: cell-based; settings: Escherichia coli, NIHJJC2, 16 h, read-out: Minimum Inhibitory Concentration (MIC: µg/ml)
E.coli GN5482 = assay: as above; format: cell-based; settings: Escherichia coli, GN5482, 16 h, read-out: Minimum Inhibitory Concentration (MIC: µg/ml)
S.marcescens IAM 1184 = assay: as above; format: cell-based; settings: Serratia marcescens, IAM1184, 16 h, read-out: Minimum Inhibitory Concentration (MIC: µg/ml)
K.oxytoca GN10650 = assay: as above; format: cell-based; settings: Klebsiella oxytoca, GN10650, 16 h, read-out: Minimum Inhibitory Concentration (MIC: µg/ml)
Ps.aeruginosa IFO3445 = assay: as above; format: cell-based; settings: Pseudomonas aeruginosa, IFO3445, 16 h, read-out: Minimum Inhibitory Concentration (MIC: µg/ml)
K.pneumoniae No. 42 = assay: as above; format: cell-based; settings: Klebsiella pneumoniae, NO.42, 16 h, read-out: Minimum Inhibitory Concentration (MIC: µg/ml)
S.aureus 209P NIHJ-JC1 = assay: as above; format: cell-based; settings: Staphylococcus aureus, 16 h, read-out: Minimum Inhibitory Concentration (MIC: µg/ml)
Ps.maltophilia GN 12873 = assay: as above; format: cell-based, Pseudomonas maltophilia; settings: Stenotrophomonas maltophilia, GN12873, 16 h, read-out: Minimum Inhibitory Concentration (MIC: µg/ml)
Ps.cepacia 23 = assay: as above; format: cell-based, Pseudomonas cepacia; settings: Burkholderia cepacia, 23, 16 h, read-out: Minimum Inhibitory Concentration (MIC: µg/ml)

In the case of CC(C)(O/N=C(\C(=O)NC1C(=O)N2C(C(=O)[O-])=C(C[n+]3ccc4cc(O)c(O)cc4c3)CSC12)c1csc(N)n1)C(=O)O (stereo not drawn) [Ex. 4, 7-[2-(2-aminothiazol-4-yl)-2-(l-carboxy-l-methylethoxyimino)acetamido]-3-(6,7-dihydroxy-2-isoquinolinio)methyl-3-cephem-4-carboxylate], the “Specific activity (unit/mg protein)” value ([1]; induced β-lactamase activity of crude enzyme, Concentration 10 µg/ml, Incubation time 3 hr, Substrate: 100 µM of cephaloridine) is reported as 0.064 unit/mg protein, the β-lactamase inducibility ([1]; measured by Enterobacter cloacae GN 5797) is reported as “no substantial β-lactamase-inducing activity was observed” and the MIC (S.marcescens No. 16-2) is reported as 0.2 µg/mL (≈ 0.318 µM). It also gave an MIC (E.coli CSH(RE45)) of 0.39 µg/mL (≈ 0.62 µM), an MIC (S.aureus BB5703) of 50 µg/mL (≈ 79.5 µM) and an MIC (P.vulgaris No. 33) of 0.0125 µg/mL (≈ 0.0199 µM). The MIC (A.calcoaceticus No. 4) was 0.1 µg/mL (≈ 0.159 µM), the MIC (S.epidermidis IAM12012) was 12.5 µg/mL (≈ 19.9 µM) and the MIC (E.cloacae 963) was 0.025 µg/mL (≈ 0.0398 µM). The MIC (E.coli CSH2 (RK1)) was < 0.006 µg/mL, the MIC (Ps.aeruginosa AKR17) was 0.78 µg/mL (≈ 1.24 µM) and the MIC (E.cloacae Nek 39) was 0.025 µg/mL (≈ 0.0398 µM). The MIC (K.pneumoniae PCI-602) was < 0.006 µg/mL, the MIC (M.luteus ATCC9341) was 6.25 µg/mL (≈ 9.94 µM) and the MIC (C.freundii GN346) was 50 µg/mL (≈ 79.5 µM). For the same compound, the MIC (P.vulgaris HX-19) was < 0.006 µg/mL, the MIC (C.freundii GN346/16) was 1.56 µg/mL (≈ 2.48 µM) and the MIC (M.morganii GN5407) was 0.05 µg/mL (≈ 0.0795 µM). It also gave an MIC (Ps.aeruginosa AK 109) of 0.2 µg/mL (≈ 0.318 µM), an MIC (S.aureus JS1) of 100 µg/mL (≈ 159 µM) and an MIC (E.coli NIHJ JC2) of 0.1 µg/mL (≈ 0.159 µM). The MIC (E.coli GN5482) was 0.39 µg/mL (≈ 0.62 µM), the MIC (S.marcescens IAM 1184) was 0.0125 µg/mL (≈ 0.0199 µM) and the MIC (K.oxytoca GN10650) was < 0.006 µg/mL. The MIC (Ps.aeruginosa IFO3445) was 0.2 µg/mL (≈ 0.318 µM), the MIC (K.pneumoniae No. 42) was 0.025 µg/mL (≈ 0.0398 µM) and the MIC (S.aureus 209P NIHJ-JC1) was 25 µg/mL (≈ 39.8 µM). For the same compound, the MIC (Ps.maltophilia GN 12873) was 1.56 µg/mL (≈ 2.48 µM) and the MIC (Ps.cepacia 23) was < 0.006 µg/mL.
